The values below come from paper PMC6151561, “Rapid Identification of Dipeptidyl Peptidase-IV (DPP-IV) Inhibitory Peptides from Ruditapes philippinarum Hydrolysate” (Molecules : A Journal of Synthetic Chemistry and Natural …, 2017).

Assay [1] addresses T1, DPP-IV enzyme (Sus scrofa, UniProt P22411).
T1 construct: purchased Sigma Chemical Co. (St. Louis, MO, USA)
As to the kind of experiment: Lineweaver-Burk double-reciprocal plot, mode of DPP-IV inhibition. As to conditions: Figure 7. The class given is biochemical, porcine. How it is done:
Figure 7 Lineweaver—Burk double-reciprocal plot for DPP-IV activity in the absence and presence of four peptides at different inhibitory concentrations. […] (0, 150, and 300 μM); (C) peptide LAPSTM (0, 150, and 300 μM); (D) peptide […] (0, 250, and 500 μM); and (E) peptide FLMESH (0, 400, and 800 μM).
DPP-IV inhibitory activity was measured as previously described by Zhang with minor modifications. Briefly, a 25 μL sample (diluted in 100 mM Tris-HCl buffer at pH 8.0) was mixed with 25 μL Gly-Pro-p-nitroanilide (1.6 mM) and pre-incubated at 37 °C for 10 min. Subsequently, 50 μL of DPP-IV (8 U/L) was added and the mixture was incubated at 37 °C for 1 h. The reaction was terminated by adding 100 μL of 1 M sodium acetate buffer at pH 4.0. The absorbance of each reaction was measured at 405 nm. […] The percent DPP-IV inhibition was calculated according to the following equation: DPP-IV inhibition(%)=[1−Asample/Ablank]×100%

The subject of assay [2] is DPP-IV. Further details: method as in PMID 26758401. As to conditions: heptapeptide derived from silver carp actin; cited from earlier work.
Assay [3] addresses T2, porcine DPP-IV (Sus scrofa, UniProt P22411).
T2 construct: purchased Sigma Chemical Co. (St. Louis, MO, USA)
The assay can be described thus: DPP-IV inhibitory activity assay (Gly-Pro-p-nitroanilide substrate, absorbance 405 nm). The class given is biochemical. As to conditions: chemically synthesized peptides; diprotin A positive control. The source says:
Papain (from papaya, 8 × 10^5 units/g of protein), trypsin (from porcine pancreas, 2.5 × 10^5 units/g of protein), pepsin (from porcine gastric mucosa, 1 × 10^4 units/g of protein), flavourzyme (from […], 2 × 10^4 units/g of protein), and alcalase (from Bacillus licheniformis, 2 × 10^5 units/g of protein) were purchased from […] Biological Tech., Ltd. (Nanjing, China). […] (St. Louis, MO, USA). Mass spectrometry (MS)-grade water, acetonitrile (ACN), and trifluoroacetic acid (TFA) were purchased from Tedia Company Inc. (Fairfield, CT, USA). All other reagents were obtained from Sigma. All reagents were of analytical grade. DPP-IV inhibitory activity was measured as previously described by Zhang with minor modifications. Briefly, a 25 μL sample (diluted in 100 mM Tris-HCl buffer at pH 8.0) was mixed with 25 μL Gly-Pro-p-nitroanilide (1.6 mM) and pre-incubated at 37 °C for 10 min. […] The reaction was terminated by adding 100 μL of 1 M sodium acetate buffer at pH 4.0. The absorbance of each reaction was measured at 405 nm. Diprotin A ([…]) was used as a reference inhibitor. The percent DPP-IV inhibition was calculated according to the following equation: […] The DPP-IV inhibitory activity of these chemically synthesized peptides was determined as described in Section 3.3.

Assay [4] concerns DPP-IV. Further details: method as in PMID 25577052. As to conditions: read-out: DPP-IV inhibitory activity IC50; cited from earlier work.

No end group written: not given here. Bounds are passed on as bounds.

T2 sequence (P22411 whole entry): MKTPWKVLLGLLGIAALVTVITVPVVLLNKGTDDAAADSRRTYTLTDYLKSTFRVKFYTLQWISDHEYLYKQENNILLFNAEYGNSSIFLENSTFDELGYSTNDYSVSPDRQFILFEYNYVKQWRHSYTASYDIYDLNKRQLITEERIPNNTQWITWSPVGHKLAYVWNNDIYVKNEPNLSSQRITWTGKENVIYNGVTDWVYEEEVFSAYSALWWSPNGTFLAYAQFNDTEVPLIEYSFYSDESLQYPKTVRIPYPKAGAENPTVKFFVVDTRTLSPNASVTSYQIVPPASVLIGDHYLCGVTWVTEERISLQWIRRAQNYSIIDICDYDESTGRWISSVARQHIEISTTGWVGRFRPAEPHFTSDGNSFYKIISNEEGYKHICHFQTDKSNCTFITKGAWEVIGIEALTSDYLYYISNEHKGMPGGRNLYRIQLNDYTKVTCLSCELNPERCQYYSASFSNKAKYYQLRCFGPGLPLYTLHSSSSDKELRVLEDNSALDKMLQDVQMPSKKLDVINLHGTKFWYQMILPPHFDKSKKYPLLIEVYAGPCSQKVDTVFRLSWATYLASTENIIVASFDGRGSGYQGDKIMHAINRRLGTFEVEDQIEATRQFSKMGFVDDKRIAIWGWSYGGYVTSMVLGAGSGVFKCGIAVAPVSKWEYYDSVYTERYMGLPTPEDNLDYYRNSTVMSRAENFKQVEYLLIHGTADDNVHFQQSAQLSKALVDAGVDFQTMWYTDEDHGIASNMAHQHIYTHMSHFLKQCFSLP
T1 sequence (P22411 whole entry): as above

Turning to `CC[C@H](C)[C@H](N)C(=O)N1CCC[C@H]1C(=O)N[C@H](C(=O)O)[C@@H](C)CC` [diprotin A, Ile-Pro-Ile, reference compound], in assay [1], the “mode of inhibition of DPP-IV enzyme” value was “competitive inhibitor”.

For the compound “ALAPSTM [heptapeptide derived from silver carp actin, from the literature]”, the DPP-IV inhibitory effect entry in assay [2] was “weak DPP-IV inhibitory effect”.

What is called IC50 is the midpoint of a concentration-inhibition curve. Take FAGDDAPR [FAGDDAPR]: in assay [1], the “mode of inhibition of DPP-IV enzyme” value is “competitive/non-competitive mixed-type inhibition mode”. For the same compound, the IC50 in assay [3] was found to be 169 µM.

With FAGDDAPRA [FAGDDAPRA], the “mode of inhibition of DPP-IV enzyme” value in assay [1] is listed as “competitive/non-competitive mixed-type inhibition mode”. Further, the IC50 in assay [3] amounted to 393 µM.

FLMESH [FLMESH]: the “mode of inhibition of DPP-IV enzyme” value in assay [1] was “competitive/non-competitive mixed-type inhibition mode”. In addition, the IC50 in assay [3] was > 500 µM.

With LAPSTM [LAPSTM], in assay [3], the IC50 was determined as 141 µM.

On to Leu-Ala, for which the IC50 in assay [4] is 91 µM.
